What was measured:
Assay in all cases: UV-vis Soret titration (A404)
[1] = tested on: r(G4C2)4 (RNA, G4) GGGGCCGGGGCCGGGGCCGGGGC; conditions: 20 mM K+; 40 mM HEPES pH 8.0, 1% DMF, 0.05% Triton X-100, 20°C; heme 0.5 µM; text also ~3 µM
[2] = tested on: d(G4C2)4 (DNA, G4) GGGGCCGGGGCCGGGGCCGGGGC; conditions: 20 mM K+; 40 mM HEPES pH 8.0, 1% DMF, 0.05% Triton X-100, 20°C; heme 0.5 µM; weaker than r(G4C2)4
[3] = tested on: CatG4 (DNA, G4) TGGGTAGGGCGGGTTGGGAAA; conditions: 20 mM K+; 40 mM HEPES pH 8.0, 1% DMF, 0.05% Triton X-100, 20°C; heme 0.5 µM
[4] = tested on: r(C4G2)4 (RNA, other) GGCCCCGGCCCCGGCCCCGGCCCC; conditions: 20 mM K+; 40 mM HEPES pH 8.0, 1% DMF, 0.05% Triton X-100, 20°C; heme 0.5 µM; up to 20 µM RNA

Compound: C=CC1=C(C)C2=Cc3c(C=C)c(C)c4[n]3[Fe]([Cl])[n]3c(c(C)c(CCC(=O)O)c3=CC3=NC(=C4)C(C)=C3CCC(=O)O)=CC1=N2
- KD [1]: 3100 nM
- binding [2]: yes
- Kd [3]: < 500 nM
- binding [4]: no
